Experiments:
Format in all cases: in vivo, human
[1] = tested on: nondependent cocaine-experienced subjects; assay: Physiologic measures during cocaine challenge sessions; settings: for Systolic Blood Pressure, Peak change: Mean ± SD, 12 subjects
Experimental: Heart rate, systolic and diastolic blood pressure were measured using a cardiovascular monitor (Dinamap by Critikon, Vital Signs Monitor 1846 SX). Rate pressure product was calculated as the product of systolic blood pressure and heart rate. Respiration rate was measured by counting the number of inhalations per minute. These vital signs were determined with the patient in a supine position for at least 10 minutes.
(§1) Heart rate, blood pressure, respiration rate, skin and core temperature were recorded at specific times during the study. During infusions, measures were obtained pre-dose and at 0.17, 0.5, 0.75, 1, 1.5, 2, 2.5, 3, 3.5, 4, 4.25, 4.5, 5, 6, 8, 12, 18, 24, 36, 48, and 72 hours after dosing. The electrocardiogram was monitored continuously during the infusion and for 4 hours after the termination of the intravenous cocaine infusion. EKG tracings were recorded at each data collection point.
(§2) The time courses of physiologic and subjective data were analyzed by repeated measures analysis of variance (ANOVA). Treatment conditions (Sessions 1 and 2) and observation times (hours post-dose) were considered within-subject factors. Change scores (post-dose minus pre-dose values) were used in most analyses. Raw score were used where indicated. After a significant F test, pairwise comparisons of treatment conditions were performed using the least squares means analysis. Peak effects within a session were determined for each subject and each variable and analyzed using a one-factor repeated measures ANOVA. Effects were considered statistically significant at p = 0.05. Data were adjusted for sphericity using the Huynh-Feldt adjustment factor. Huynh-Feldt-corrected significance values are reported.

[2] = tested on: nondependent cocaine-experienced subjects; assay: Subjective measures (verbal ratings, visual analog scales, POMS) during cocaine challenge sessions; settings: for Cocaine Craving (0–100), Peak change / Global Intoxication (0–100), Peak change: verbal rating; for Bad Drug Effect (0–100), Peak change / Good Drug Effect (0–100), Peak change: visual analog scale
From the text: Verbal ratings of global intoxication and craving (on a scale of 0 to 100) were obtained at the same time points as the physiologic measures, with 0 representing no drug effect and 100 representing the highest level of intoxication or craving.
Visual analog scales were used to rate the degree of drug liking by moving an arrow along a 10 cm line marked at opposite ends as 0 (not at all) and 100 (extreme) using a hand-held computer (Tandy 102). Items rated on the visual analog scale included "good drug effect" and "bad drug effect," and were obtained prior to cocaine infusion and at 0.17, 0.5, 0.75, 1, 1.5, 2, 2.5, 3, 3.5, 4, 4.25, 4.5, 5, 6, and 8 hours after dosing.
The Profile of Mood States (POMS) assessed mood changes in Anger, Confusion, Fatigue, Tension, and Vigor on a scale from 0 to 4, where 0 indicated "no effect" and 4 indicates "extremely strong". Ratings were obtained prior to cocaine infusion and at 1, 3, and 6 hours after dosing.
as §2

[3] = tested on: noradrenergic tone; assay: Urinary MHPG-S excretion (surrogate for noradrenergic tone, MAO-A metabolite)
From the text: The interactions between MAO-A inhibitors and cocaine administered are largely unexplored. […] Therefore, measurement of dopaminergic and noradrenergic tone may be important in predicting toxic events. We measured dopaminergic tone with the surrogate marker of plasma HVA, the major brain metabolite of dopamine, and serum levels of prolactin, a hormone whose secretion is inhibited by dopamine. The surrogate for noradrenergic tone was urine concentrations of MHPG-S. In order to assess the degree of MAO-A and MAO-B inhibition, we assayed concentrations of a substrate of MAO-B, phenylethylamine (PEA). PEA would be expected to increase with MAO-B inhibition, and concentrations of MHPG-S, which is a metabolite of norepinephrine produced by MAO-A primarily in the brain [20], would be expected to decrease.
When subjects were in the GCRC, all urine was collected and volumes recorded. Following each cocaine infusion, urine was collected in fractions from 0 to 24, 24 to 48, and 48 to 72 hours (timed from the start of the infusion). Samples were then frozen at -70°C until analyzed. […] A qualitative screen for drugs of abuse was obtained every other day for the entire study period.
Concentrations of MHPG-S in urine were determined using LC-MS/MS [29]. […] As urinary creatinine excretion is directly related to glomerular filtration and renal blood flow, and urinary creatinine excretion is relatively constant (~1 gm/day), it can be used to estimate concentrations of a substance during a 24 hour urine collection period. Using ratios of the concentrations of MHPG-S to creatinine obtained from assays of these spot urine samples, MGPG-S concentrations during the outpatient period (when subjects would be unlikely to provide accurate 24 hour urine collections) were compared to those from urine samples on inpatient days.

[4] = tested on: nondependent cocaine-experienced subjects; assay: Adverse events and cardiovascular safety monitoring
Experimental: as §1

[5] = Session 1: first cocaine infusion, before selegiline
[6] = Session 2: second cocaine infusion, after one week of selegiline STS
[7] = both cocaine challenge sessions, p < 0.01

With COC(=O)[C@H]1[C@@H](OC(=O)c2ccccc2)C[C@@H]2CC[C@H]1N2C [Cocaine, cocaine] the “Core Temperature, Peak Time” value [1, 5] was 4.5 ± 1.6 Hr Postdose, the “Core Temperature, Peak change” value [1, 5] was 0.7 ± 0.2 °C and the “Diastolic Blood Pressure, Peak Time” value [1, 5] was 2.8 ± 2.4 Hr Postdose. The “Diastolic Blood Pressure, Peak change” value [1, 5] was 10 ± 5 mmHg, the “Heart Rate, Peak Time” value [1, 5] was 0.8 ± 0.9 Hr Postdose and the “Heart Rate, Peak change” value [1, 5] was 26 ± 10 beats/min. The “Rate Pressure Product, Peak Time” value [1, 5] was 1.4 ± 1.5 Hr Postdose, the “Rate Pressure Product, Peak change” value [1, 5] was 4224 ± 1638 SBP*HR and the “Respiration Rate, Peak Time” value [1, 5] was 0.9 ± 1.3 Hr Postdose. The “Respiration Rate, Peak change” value [1, 5] was 3.8 ± 4.0 inhal/min, the “Skin Temperature, Peak Time” value [1, 5] was 0.8 ± 0.4 Hr Postdose and the “Skin Temperature, Peak change” value [1, 5] was -5.4 ± 2.7 °C. For the same molecule, the “Systolic Blood Pressure, Peak Time” value [1, 5] was 2.2 ± 1.9 Hr Postdose, the “Systolic Blood Pressure, Peak change” value ([1]; Session 1: first cocaine infusion, day 1, before selegiline) was 17 ± 8 mmHg and the “Core Temperature, Peak Time” value [1, 6] was 4.2 ± 1.9 Hr Postdose. For the same molecule, the “Core Temperature, Peak change” value [1, 6] was 0.7 ± 0.5 °C, the “Diastolic Blood Pressure, Peak Time” value [1, 6] was 2 ± 2 Hr Postdose and the “Diastolic Blood Pressure, Peak change” value [1, 6] was 12 ± 6 mmHg. The “Heart Rate, Peak Time” value [1, 6] was 0.9 ± 1.7 Hr Postdose, the “Heart Rate, Peak change” value [1, 6] was 27 ± 12 beats/min and the “Rate Pressure Product, Peak Time” value [1, 6] was 0.9 ± 1.6 Hr Postdose. For the same molecule, the “Rate Pressure Product, Peak change” value [1, 6] was 4437 ± 2333 SBP*HR, the “Respiration Rate, Peak Time” value [1, 6] was 0.4 ± 0.3 Hr Postdose and the “Respiration Rate, Peak change” value [1, 6] was 3.8 ± 3.6 inhal/min. The “Skin Temperature, Peak Time” value [1, 6] was 1.0 ± 1.2 Hr Postdose, the “Skin Temperature, Peak change” value [1, 6] was -5 ± 3.2 °C and the “Systolic Blood Pressure, Peak Time” value [1, 6] was 1.9 ± 1.7 Hr Postdose. For the same molecule, the “Systolic Blood Pressure, Peak change” value ([1]; Session 2: second cocaine infusion, day 11, after one week of selegiline STS patch 6 mg/24 hours) was 17 ± 9 mmHg, the “Skin temperature compared to baseline” value [1, 7] was “decreased significantly” and the “Systolic blood pressure, heart rate, and rate pressure product compared to baseline” value [1, 7] was “increased significantly”. The “Diastolic blood pressure, respiration rate, and core temperature” value ([1]; cocaine either alone or with selegiline) was “did not alter”, the “Bad Drug Effect, Peak Time” value [2, 5] was 1.9 ± 2.3 Hr Postdose and the “Cocaine Craving, Peak Time” value [2, 5] was 1.1 ± 1.3 Hr Postdose. For the same molecule, the “Global Intoxication, Peak Time” value [2, 5] was 0.7 ± 1 Hr Postdose, the “Good Drug Effect, Peak Time” value [2, 5] was 0.9 ± 1.5 Hr Postdose and the “POMS Anger (0–28), Peak change” value [2, 5] was 2.8 ± 6.4. The “POMS Anger, Peak Time” value [2, 5] was 6 ± 0 Hr Postdose, the “POMS Confusion (0–20), Peak change” value [2, 5] was 2.5 ± 2.8 and the “POMS Confusion, Peak Time” value [2, 5] was 6 ± 0 Hr Postdose. For the same molecule, the “POMS Depression (0–64), Peak change” value [2, 5] was 3 ± 6.5, the “POMS Depression, Peak Time” value [2, 5] was 3 ± 0 Hr Postdose and the “POMS Fatigue (0–28), Peak change” value [2, 5] was 5.9 ± 5.9. For the same molecule, the “POMS Fatigue, Peak Time” value [2, 5] was 6 ± 0 Hr Postdose, the “POMS Tension (0–28), Peak change” value [2, 5] was 7.5 ± 6.1 and the “POMS Tension, Peak Time” value [2, 5] was 1 ± 0 Hr Postdose. The “POMS Vigor (0–32), Peak change” value [2, 5] was -3.6 ± 3.4, the “POMS Vigor, Peak Time” value [2, 5] was 6 ± 0 Hr Postdose and the “Cocaine Craving (0–100), Peak change” value [2, 5] was 33 ± 25. The “Global Intoxication (0–100), Peak change” value [2, 5] was 57 ± 27, the “Bad Drug Effect (0–100), Peak change” value [2, 5] was 46 ± 31 and the “Good Drug Effect (0–100), Peak change” value [2, 5] was 66 ± 23. For the same molecule, the “Bad Drug Effect, Peak Time” value [2, 6] was 1.4 ± 1.9 Hr Postdose, the “Cocaine Craving, Peak Time” value [2, 6] was 0.6 ± 0.7 Hr Postdose and the “Global Intoxication, Peak Time” value [2, 6] was 0.6 ± 0.9 Hr Postdose. The “Good Drug Effect, Peak Time” value [2, 6] was 1 ± 1.3 Hr Postdose, the “POMS Anger, Peak Time” value [2, 6] was 6 ± 0 Hr Postdose and the “POMS Confusion (0–20), Peak change” value [2, 6] was 2.7 ± 4.7. For the same molecule, the “POMS Confusion, Peak Time” value [2, 6] was 3 ± 0 Hr Postdose, the “POMS Depression (0–64), Peak change” value [2, 6] was 1.5 ± 2.4 and the “POMS Depression, Peak Time” value [2, 6] was 3 ± 0 Hr Postdose. For the same molecule, the “POMS Fatigue (0–28), Peak change” value [2, 6] was 2.8 ± 5.3, the “POMS Fatigue, Peak Time” value [2, 6] was 6 ± 0 Hr Postdose and the “POMS Tension (0–28), Peak change” value [2, 6] was 4.8 ± 3.9. For the same molecule, the “POMS Tension, Peak Time” value [2, 6] was 1 ± 0 Hr Postdose, the “POMS Vigor (0–32), Peak change” value [2, 6] was -3.9 ± 6.1 and the “POMS Vigor, Peak Time” value [2, 6] was 6 ± 0 Hr Postdose. The “POMS Anger (0–28), Peak change” value ([2]; Session 2: second cocaine infusion, after one week of selegiline STS, significantly different from Session 1 (p < 0.03)) was -2.1 ± 5.7, the “Cocaine Craving (0–100), Peak change” value [2, 6] was 20 ± 21 and the “Global Intoxication (0–100), Peak change” value [2, 6] was 53 ± 23. For the same molecule, the “Bad Drug Effect (0–100), Peak change” value [2, 6] was 55 ± 25, the “Good Drug Effect (0–100), Peak change” value [2, 6] was 60 ± 21 and the “Global intoxication, verbal ratings of craving, and good drug effect compared to baseline” value ([2]; both cocaine challenge sessions) was “increased”. The “Total Amount of MHPG-S Excreted in the 24 Hour Urine Collection” value ([3]; Day 3–4 After Cocaine Preselegiline) was 1.44 ± 0.43 mg, the “Urine MHPG-S/creatinine concentration ratios vs the day before cocaine challenge” value ([3]; second day after the first cocaine challenge, p < 0.05) was “increased significantly” and the Adverse events ([4]; STS 6 mg/24 hours, cocaine-d5 IV 2.5 mg/kg over 4 hours) was “One subject vomited”. The “Adverse effects of cocaine following selegiline administration” value ([4]; cocaine infusion after one week of STS) was “No significant adverse effects”.
